Measurements: the NIST ThermoML archive (doi:10.1016/j.jct.2011.08.016)

Test: xn = mol fraction of the nth substance listed
Details: Liquid, Vibrating tube method

CCCCCCCCCC [decane] + CCCCCCC
Details | mass density [kg/m3]
363.02 K, 16000 kPa, x2 = 0.777 | 658.24
363.02 K, 17000 kPa, x2 = 0.5219 | 673.01
363.02 K, 17000 kPa, x2 = 0.777 | 659.41
363.02 K, 18000 kPa, x2 = 0.5219 | 674.09
363.02 K, 18000 kPa, x2 = 0.777 | 660.5
363.02 K, 19000 kPa, x2 = 0.5219 | 675.09
363.02 K, 19000 kPa, x2 = 0.777 | 661.57
363.02 K, 20000 kPa, x2 = 0.5219 | 676.07
363.02 K, 20000 kPa, x2 = 0.777 | 662.62
363.02 K, 21000 kPa, x2 = 0.5219 | 677.05
363.02 K, 21000 kPa, x2 = 0.777 | 663.64
363.02 K, 22000 kPa, x2 = 0.5219 | 677.98
363.02 K, 22000 kPa, x2 = 0.777 | 664.64
363.02 K, 23000 kPa, x2 = 0.5219 | 678.94
363.02 K, 23000 kPa, x2 = 0.777 | 665.63
363.02 K, 24000 kPa, x2 = 0.5219 | 679.87
363.02 K, 24000 kPa, x2 = 0.777 | 666.6
363.02 K, 25000 kPa, x2 = 0.5219 | 680.76
363.02 K, 25000 kPa, x2 = 0.777 | 667.53
363.03 K, 1000 kPa, x2 = 0.0531 | 674.85
363.03 K, 1000 kPa, x2 = 0.952 | 627.08
363.03 K, 2000 kPa, x2 = 0.0531 | 676.04
363.03 K, 2000 kPa, x2 = 0.952 | 628.62
363.03 K, 3000 kPa, x2 = 0.0531 | 677.23
363.03 K, 3000 kPa, x2 = 0.952 | 630.14
363.03 K, 4000 kPa, x2 = 0.0531 | 678.38
363.03 K, 4000 kPa, x2 = 0.952 | 631.64
363.03 K, 5000 kPa, x2 = 0.0531 | 679.52
363.03 K, 5000 kPa, x2 = 0.952 | 633.12
363.03 K, 6000 kPa, x2 = 0.0531 | 680.65
363.03 K, 6000 kPa, x2 = 0.952 | 634.56
363.03 K, 7000 kPa, x2 = 0.0531 | 681.75
363.03 K, 7000 kPa, x2 = 0.952 | 635.98
363.03 K, 8000 kPa, x2 = 0.0531 | 682.84
363.03 K, 8000 kPa, x2 = 0.952 | 637.36
363.03 K, 9000 kPa, x2 = 0.0531 | 683.92
363.03 K, 9000 kPa, x2 = 0.952 | 638.71
363.03 K, 10000 kPa, x2 = 0.0531 | 684.98
363.03 K, 10000 kPa, x2 = 0.952 | 640.03
363.03 K, 11000 kPa, x2 = 0.0531 | 686.02
363.03 K, 11000 kPa, x2 = 0.952 | 641.33
363.03 K, 12000 kPa, x2 = 0.0531 | 687.05
363.03 K, 12000 kPa, x2 = 0.952 | 642.61
363.03 K, 13000 kPa, x2 = 0.0531 | 688.07
363.03 K, 13000 kPa, x2 = 0.952 | 643.86
363.03 K, 14000 kPa, x2 = 0.0531 | 689.07
363.03 K, 14000 kPa, x2 = 0.952 | 645.09
363.03 K, 15000 kPa, x2 = 0.0531 | 690.05
363.03 K, 15000 kPa, x2 = 0.952 | 646.3
363.03 K, 16000 kPa, x2 = 0.0531 | 691.03
363.03 K, 16000 kPa, x2 = 0.952 | 647.49
363.03 K, 17000 kPa, x2 = 0.0531 | 691.98
363.03 K, 17000 kPa, x2 = 0.952 | 648.66
363.03 K, 18000 kPa, x2 = 0.0531 | 692.93
363.03 K, 18000 kPa, x2 = 0.952 | 649.8
363.03 K, 19000 kPa, x2 = 0.0531 | 693.87
363.03 K, 19000 kPa, x2 = 0.952 | 650.92
363.03 K, 20000 kPa, x2 = 0.0531 | 694.79
363.03 K, 20000 kPa, x2 = 0.952 | 652.02
363.03 K, 21000 kPa, x2 = 0.0531 | 695.7
363.03 K, 21000 kPa, x2 = 0.952 | 653.1
363.03 K, 22000 kPa, x2 = 0.0531 | 696.6
363.03 K, 22000 kPa, x2 = 0.952 | 654.16
363.03 K, 23000 kPa, x2 = 0.0531 | 697.47
363.03 K, 23000 kPa, x2 = 0.952 | 655.2
363.03 K, 24000 kPa, x2 = 0.0531 | 698.37
363.03 K, 24000 kPa, x2 = 0.952 | 656.21
363.03 K, 25000 kPa, x2 = 0.0531 | 699.21
363.03 K, 25000 kPa, x2 = 0.952 | 657.21
363.06 K, 1000 kPa, x2 = 0.2594 | 666.7
363.06 K, 2000 kPa, x2 = 0.2594 | 667.89
363.06 K, 3000 kPa, x2 = 0.2594 | 669.1
363.06 K, 4000 kPa, x2 = 0.2594 | 670.27
363.06 K, 5000 kPa, x2 = 0.2594 | 671.44
363.06 K, 6000 kPa, x2 = 0.2594 | 672.61
363.06 K, 7000 kPa, x2 = 0.2594 | 673.77
363.06 K, 8000 kPa, x2 = 0.2594 | 674.91
363.06 K, 9000 kPa, x2 = 0.2594 | 676.05
363.06 K, 10000 kPa, x2 = 0.2594 | 677.17
363.06 K, 11000 kPa, x2 = 0.2594 | 678.26
363.06 K, 12000 kPa, x2 = 0.2594 | 679.34
363.06 K, 13000 kPa, x2 = 0.2594 | 680.41
363.06 K, 14000 kPa, x2 = 0.2594 | 681.46
363.06 K, 15000 kPa, x2 = 0.2594 | 682.5
363.06 K, 16000 kPa, x2 = 0.2594 | 683.52
363.06 K, 17000 kPa, x2 = 0.2594 | 684.53
363.06 K, 18000 kPa, x2 = 0.2594 | 685.52
363.06 K, 19000 kPa, x2 = 0.2594 | 686.5
363.06 K, 20000 kPa, x2 = 0.2594 | 687.43
363.06 K, 21000 kPa, x2 = 0.2594 | 688.35
363.06 K, 22000 kPa, x2 = 0.2594 | 689.23
363.06 K, 23000 kPa, x2 = 0.2594 | 690.14
363.06 K, 24000 kPa, x2 = 0.2594 | 691.03
363.06 K, 25000 kPa, x2 = 0.2594 | 691.89
